In US12059471B2, “Complex” (UNITED IMMUNITY, CO., LTD., priority 2020, dated 2024):
In the oligonucleotide strings, read from the 5' end, every base follows the letter of its sugar. An asterisk marks phosphorothioate; unmarked linkages are phosphodiester. Other units and linkages are bracketed, terminal groups are in braces. A string of capitals states the bases alone. {Chol-TEG} = cholesterol attached through a triethylene glycol linker; d = 2'-deoxy (DNA)

Test: Complexation evaluation by size exclusion chromatography (SEC/HPLC)
Format: physicochemical
Conditions: Chol-CpG 20 uM, SEC, UV 260 nm, PBS
Protocol: As complexation evaluation of the Chol-CpG (K3)/CHP nanogel complex sample prepared in Test Example 1-5, size exclusion chromatography (SEC) was carried out. The conditions were as follows. Column: G3000SWXL (Tosoh Corporation), 7.8 mm×150 mm, detector: UV (260 nm), column detection temperature: 35° C., injection amount: 20 uL, flow rate: 0.5 mL/min, eluent: PBS (pH: 7.4). Using PBS as an eluent, the eluate was detected at 260 nm, which was an absorption wavelength specific to CpG, which was a nucleic acid adjuvant.
As the complexation evaluation of the Chol-CpG (D35)/CHP nanogel complex sample prepared in Test Example 2-3, size exclusion chromatography (SEC) was carried out in the same manner as in Test Example 1-6.

In the case of “Chol-CpG (D35): Cholesterol linked to 5′-end of D35 CpG oligonucleotide (SEQ ID NO 2) through a triethylene glycol linker (DNA {Chol-TEG}-dG*dGdTdGdCdAdTdCdGdAdTdGdCdAdGdGdGdG*dG*dG)”, the “complexed ratio with the nanogel” value (CHP nanogel 40 uM, molar ratio nanogel:Chol-CpG 2:1) was ~100% and the “complexed ratio with the nanogel” value (molar ratio nanogel:Chol-CpG 1:1) was “about 90%”.
